{"source": "patent EP0505640B2", "about": "“Improved therapeutic method” (ELI LILLY AND COMPANY, priority 1991, dated 1992)", "key": {"bovine FBP": {"molecular_target": "bovine FBP (Bos taurus, UniProt P02702)", "sequence (P02702 20-234)": "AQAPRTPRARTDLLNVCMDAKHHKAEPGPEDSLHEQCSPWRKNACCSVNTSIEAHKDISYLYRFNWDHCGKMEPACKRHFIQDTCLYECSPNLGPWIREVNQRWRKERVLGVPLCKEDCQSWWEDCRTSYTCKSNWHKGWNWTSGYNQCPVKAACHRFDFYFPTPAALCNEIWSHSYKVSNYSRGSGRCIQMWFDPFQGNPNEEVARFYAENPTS", "assay": "Folate binding constant, procedure of Dunn and Foster", "protocol": "As noted above, the drug products which can be employed in the present invention include other GAR-transformylase or TS inhibitors which are capable of binding to folate binding protein. Folic acid itself has a binding constant (ng/ml) of 1.8, and lometrexol has a binding constant of 9.7 to bovine FBP. Any GAR-transformylase or TS inhibitor that binds at less than about 500 ng/ml can be utilized in the method of this invention. The folate binding constant for drug products can be readily determined by the general procedure of Dunn and Foster, Clin. Chem., 19 (10), 1101-1105 (1973)."}, "C3H Mice": {"system": "C3H Mice", "assay": "Toxicity measured as death of tumor-bearing C3H mice", "format": "in vivo", "protocol": "(§1) In one such test, mice are inoculated with the C3H strain of mammary adenocarcinoma by inserting a 2 mm by 2 mm section of tumor into the axillary region of the mice by trocar. In all experiments, lometrexol was administered intraperitoneally once a day for five consecutive days, starting on the day following tumor implantation. Ten animals were used at each dosage level. Antitumor activity was assessed on day ten by measuring the length and width of the tumor growth using vernier calipers, and the activity was expressed as a percent inhibition of tumor growth."}, "[1]": {"system": "C3H strain of mammary adenocarcinoma", "assay": "Antitumor activity against implanted C3H mammary adenocarcinoma in mice", "format": "in vivo", "protocol": "as §1"}, "[2]": {"system": "nasalpharyngeal carcinoma", "details": "one subject with nasalpharyngeal carcinoma, folic acid 0.5 to 1.0 mg/day, after the 12 months of therapy"}, "[3]": {"details": "read-out: Binding Constant, folate binding protein"}}, "note": "Read-outs that look alike come from different tables or passages of the source."}
{"smiles": "Nc1nc2ncc(CNc3ccc(C(=O)N[C@@H](CCC(=O)O)C(=O)O)cc3)nc2c(=O)[nH]1", "note": "[Folic acid]", "values": [{"measurement": "Kd", "setting": "bovine FBP; folate binding protein, read-out: Binding Constant (converted)", "result": 4.08, "unit": "nM"}]}
{"smiles": "Nc1nc(O)c2c(n1)NCC(CCC1CCC(C(=O)NC(CCC(=O)O)C(=O)O)CC1)C2", "note": "(stereo not shown)", "values": [{"measurement": "Kd", "setting": "bovine FBP; [3]", "result": 57.8, "unit": "nM"}]}
{"smiles": "C#CCN(Cc1ccc2[nH]c(N)nc(=O)c2c1)c1ccc(C(=O)NC(CCC(=O)O)C(=O)O)cc1", "note": "(stereo not shown)", "values": [{"measurement": "Kd", "setting": "bovine FBP; [3]", "result": 25.1, "unit": "nM"}]}
{"smiles": "Cc1nc2ccc(CN(C)c3ccc(C(=O)NC(CCC(=O)O)C(=O)O)s3)cc2c(=O)[nH]1", "note": "(stereo not shown)", "values": [{"measurement": "Kd", "setting": "bovine FBP; [3]", "result": 534, "unit": "nM"}]}
{"smiles": "Nc1nc(O)c2c(n1)NCC(CCc1ccc(C(=O)NC(CCC(=O)O)C(=O)O)o1)C2", "note": "(stereo not shown)", "values": [{"measurement": "Kd", "setting": "bovine FBP; [3]", "result": 579, "unit": "nM"}]}
{"smiles": "Nc1nc2c(c(=O)[nH]1)CC(CCc1ccc(C(=O)N[C@@H](CCC(=O)O)C(=O)O)cc1)CN2", "note": "(stereo partly shown) [Lometrexol, 5,10-dideazatetrahydrofolic acid]", "values": [{"measurement": "Toxicity (Mice Dead/Total Mice)", "setting": "C3H Mice; Lometrexol 0.0625 mg/kg i.p. once a day for five days, two weeks on folate-free diet", "result": "0/10"}, {"measurement": "Toxicity (Mice Dead/Total Mice)", "setting": "C3H Mice; Lometrexol 0.125 mg/kg i.p. once a day for five days, folate-free diet plus 0.0003% folate in drinking water", "result": "0/10"}, {"measurement": "Toxicity (Mice Dead/Total Mice)", "setting": "C3H Mice; Lometrexol 0.125 mg/kg i.p. once a day for five days, two weeks on folate-free diet", "result": "0/10"}, {"measurement": "Toxicity (Mice Dead/Total Mice)", "setting": "C3H Mice; Lometrexol 0.25 mg/kg i.p. once a day for five days, folate-free diet plus 0.0003% folate in drinking water", "result": "0/10"}, {"measurement": "Toxicity (Mice Dead/Total Mice)", "setting": "C3H Mice; Lometrexol 0.25 mg/kg i.p. once a day for five days, two weeks on folate-free diet", "result": "0/10"}, {"measurement": "Toxicity (Mice Dead/Total Mice)", "setting": "C3H Mice; Lometrexol 0.5 mg/kg i.p. once a day for five days, folate-free diet plus 0.0003% folate in drinking water", "result": "0/10"}, {"measurement": "Toxicity (Mice Dead/Total Mice)", "setting": "C3H Mice; Lometrexol 0.5 mg/kg i.p. once a day for five days, two weeks on folate-free diet", "result": "0/10"}, {"measurement": "Toxicity (Mice Dead/Total Mice)", "setting": "C3H Mice; Lometrexol 1.0 mg/kg i.p. once a day for five days, folate-free diet plus 0.0003% folate in drinking water", "result": "0/10"}, {"measurement": "Toxicity (Mice Dead/Total Mice)", "setting": "C3H Mice; Lometrexol 1.0 mg/kg i.p. once a day for five days, two weeks on folate-free diet", "result": "8/10"}, {"measurement": "Toxicity (Mice Dead/Total Mice)", "setting": "C3H Mice; Lometrexol 1.0 mg/kg i.p. once a day for five days, two weeks on folate-free diet, listed as lometrexol", "result": "lethal to the majority of the mice"}, {"measurement": "Toxicity (Mice Dead/Total Mice)", "setting": "C3H Mice; Lometrexol 2.0 mg/kg i.p. once a day for five days, folate-free diet plus 0.0003% folate in drinking water", "result": "0/10"}, {"measurement": "Toxicity (Mice Dead/Total Mice)", "setting": "C3H Mice; Lometrexol 4.0 mg/kg i.p. once a day for five days, folate-free diet plus 0.0003% folate in drinking water", "result": "4/10"}, {"measurement": "Toxicity (Mice Dead/Total Mice)", "setting": "C3H Mice; Lometrexol 6.25 mg/kg i.p. once a day for five days, folate-free diet plus 0.003% folate in drinking water", "result": "0/10"}, {"measurement": "Toxicity (Mice Dead/Total Mice)", "setting": "C3H Mice; Lometrexol 12.5 mg/kg i.p. once a day for five days, folate-free diet plus 0.003% folate in drinking water", "result": "0/10"}, {"measurement": "Toxicity (Mice Dead/Total Mice)", "setting": "C3H Mice; Lometrexol 25 mg/kg i.p. once a day for five days, folate-free diet plus 0.003% folate in drinking water", "result": "0/10"}, {"measurement": "Toxicity (Mice Dead/Total Mice)", "setting": "C3H Mice; Lometrexol 50 mg/kg i.p. once a day for five days, folate-free diet plus 0.003% folate in drinking water", "result": "0/10"}, {"measurement": "Antitumor Activity (% Inhibition)", "setting": "[1]; Lometrexol 0.0625 mg/kg i.p. once a day for five days, two weeks on folate-free diet, assessed day ten", "result": 0, "unit": "%"}, {"measurement": "Antitumor Activity (% Inhibition)", "setting": "[1]; Lometrexol 0.125 mg/kg i.p. once a day for five days, folate-free diet plus 0.0003% folate in drinking water, day ten", "result": 13, "unit": "%"}, {"measurement": "Antitumor Activity (% Inhibition)", "setting": "[1]; Lometrexol 0.125 mg/kg i.p. once a day for five days, two weeks on folate-free diet, assessed day ten", "result": 0, "unit": "%"}, {"measurement": "Antitumor Activity (% Inhibition)", "setting": "[1]; Lometrexol 0.25 mg/kg i.p. once a day for five days, folate-free diet plus 0.0003% folate in drinking water, day ten", "result": 26, "unit": "%"}, {"measurement": "Antitumor Activity (% Inhibition)", "setting": "[1]; Lometrexol 0.25 mg/kg i.p. once a day for five days, two weeks on folate-free diet, assessed day ten", "result": 21, "unit": "%"}, {"measurement": "Antitumor Activity (% Inhibition)", "setting": "[1]; Lometrexol 0.5 mg/kg i.p. once a day for five days, folate-free diet plus 0.0003% folate in drinking water, day ten", "result": 48, "unit": "%"}, {"measurement": "Antitumor Activity (% Inhibition)", "setting": "[1]; Lometrexol 0.5 mg/kg i.p. once a day for five days, two weeks on folate-free diet, assessed day ten", "result": 88, "unit": "%"}, {"measurement": "Antitumor Activity (% Inhibition)", "setting": "[1]; Lometrexol 1.0 mg/kg i.p. once a day for five days, folate-free diet plus 0.0003% folate in drinking water, day ten", "result": 97, "unit": "%"}, {"measurement": "Antitumor Activity (% Inhibition)", "setting": "[1]; Lometrexol 1.0 mg/kg i.p. once a day for five days, two weeks on folate-free diet, assessed day ten", "result": 100, "unit": "%"}, {"measurement": "Antitumor Activity (% Inhibition)", "setting": "[1]; Lometrexol 2.0 mg/kg i.p. once a day for five days, folate-free diet plus 0.0003% folate in drinking water, day ten", "result": 98, "unit": "%"}, {"measurement": "Antitumor Activity (% Inhibition)", "setting": "[1]; Lometrexol 4.0 mg/kg i.p. once a day for five days, folate-free diet plus 0.0003% folate in drinking water, day ten", "result": 99, "unit": "%"}, {"measurement": "Antitumor Activity (% Inhibition)", "setting": "[1]; Lometrexol 6.25 mg/kg i.p. once a day for five days, folate-free diet plus 0.003% folate in drinking water, day ten", "result": 91, "unit": "%"}, {"measurement": "Antitumor Activity (% Inhibition)", "setting": "[1]; Lometrexol 12.5 mg/kg i.p. once a day for five days, folate-free diet plus 0.003% folate in drinking water, day ten", "result": 89, "unit": "%"}, {"measurement": "Antitumor Activity (% Inhibition)", "setting": "[1]; Lometrexol 25 mg/kg i.p. once a day for five days, folate-free diet plus 0.003% folate in drinking water, day ten", "result": 97, "unit": "%"}, {"measurement": "Antitumor Activity (% Inhibition)", "setting": "[1]; Lometrexol 50 mg/kg i.p. once a day for five days, folate-free diet plus 0.003% folate in drinking water, day ten", "result": 96, "unit": "%"}, {"measurement": "Kd", "setting": "bovine FBP", "result": 21.9, "unit": "nM"}, {"measurement": "clinical evidence of disease", "setting": "[2]", "result": "no clinical evidence of disease"}]}
{"smiles": "Nc1nc(O)c2c(n1)NCC(CCc1ccc(C(=O)NC(CCC(=O)O)C(=O)O)s1)C2", "note": "(stereo not shown)", "values": [{"measurement": "Kd", "setting": "bovine FBP; [3]", "result": 54.5, "unit": "nM"}]}
{"smiles": "Nc1nc(O)c2c(n1)NCC(CCCc1ccc(C(=O)NC(CCC(=O)O)C(=O)O)cc1)C2", "note": "(stereo not shown) [n = 3 X = H]", "values": [{"measurement": "Kd", "setting": "bovine FBP", "result": 27.3, "unit": "nM"}]}
